The conditions of data set [1]: no adverse reactions in any species even at large doses; cited from earlier work.
The next data set deals with injured skin. Conditions: topical application at concentrations of 2-5%; cited from earlier work.
The subject of data set [2] is Human umbilical vein endothelial cells (HUVEC). The experiment in a line: Effect of panthenol citrate oligomers on cell viability, HUVEC. Type of data set: cell-based. Conditions: higher concentrations (1 mg/ml), 24 hours. How it is done:
Human umbilical vein endothelial cells (HUVEC) (Lonza, Walkersville, Md.), adult human epidermal keratinocytes (HEKa) (Gibco, Carlsbad, Calif.), and human dermal fibroblast (HDF) (Lonza, Walkersville, Md.) were cultured in SmGM-2, Keratinocyte-SFM and DMEM, respectively, in a humidified incubator equilibrated with 5% CO2 at 37° C. Cells were seeded at a density of 1×10^4 cells/ml in 96-well tissue culture plates.

Structures are written as SMILES.

In the case of `CC(C)(CO)C(O)C(=O)NCCCO` (racemic) [panthenol, DL-panthenol], the toxicities result in data set [1] is reported as “negligible”. In addition, the “regeneration of injured skin” value with injured skin is on record as “stimulate the regeneration of injured skin”.

Regarding `O=C(O)CC(O)(CC(=O)O)C(=O)O` [citric acid, Citric acid], in data set [2], the HUVEC cell survival entry is reported as “died within 24 hours”.

The values are drawn from patent US10406385B2 (Northwestern University, priority 2014, dated 2019).
